Test results published in patent US20050124579A1, “Benzyl alcohol derivatives” (priority 2002, published 2005).
Converted amounts (≈) assume the structure as drawn.

What was measured:
[1] = tested on: Staphylococcus aureus ATCC 6538; assay: Determination of the minimum inhibition concentration (MIC value) in microtitre plates; format: cell-based; settings: CASO broth, 37° C., 48 hours, optical density at 620 nm, MIC = <20% growth vs growth control
Excerpt: (§1) Determination of the Minimum Inhibition Concentration (MIC Value) in Microtitre Plates Nutrient Medium: Casein-soy flour-peptone broth for the preparation of the precultures of the test bacteria and yeast. Examples of Test Microbes: Bacteria: Staphylococcus aureus ATCC 6538 • Escherichia coli NCTC 8196 (=EC) Procedure: The test substances are predissolved in dimethyl sulphoxide (DMSO) and tested in a dilution series of 1:2. The bacteria are cultivated overnight in CASO broth and sponged off with 10 ml of 0.85% sodium chloride solution (+0.1% TritonX-100). All of the test microbes are adjusted to a microbial count of 1-5×10^6 CFU/ml with 0.85% sodium chloride solution. The test substances are prepipetted at 8 μl per well into microtitre plates. Prediluted microbial suspensions are diluted 1:100 in CASO broth and added at 192 μl per well to the test substances. The test mixtures are incubated at 37° C. for 48 hours. After incubation, the growth is determined by reference to the clouding of the test mixtures (optical density) at 620 nm in a microplate reader. The minimum inhibition concentration (MIC value) is the concentration of substance at which (compared with the growth control) a significant growth inhibition (<20% growth) of the test microbes is established. One microtitre plate is prepared per test microbe and substance concentration. All of the substances are tested in duplicate.

[2] = tested on: Escherichia coli NCTC 8196; assay: as above; format: cell-based; design: unit not given here; settings: CASO broth, 37° C., 48 hours, optical density at 620 nm; MIC = <20% growth vs growth control
Excerpt: as §1

| SMILES | MIC Staphylococcus aureus [1] [ppm] | MIC Escherichia coli [2] | MIC ([1]; Staphylococcus aureus, ATCC6538) [µg/mL] |
| --- | --- | --- | --- |
| C[Si](C)(C)CCCOc1ccccc1CO [(3)] | 60 | >120 |  |
| C[Si](C)(C)COc1ccccc1CO [(4)] | 120 | >120 |  |
| CCCCCCCCOc1ccccc1CO [(5)] | 60 | >120 |  |
| CCC(CC)Oc1ccccc1CO [(6)] | 120 | >120 |  |
| CCCCCC(C)Oc1ccccc1CO (stereo not drawn) [(7)] | 120 | >120 |  |
| C[Si](C)(C)CCCOc1ccc(CO)cc1 [(8)] | 60 | 60 |  |
| COCCOCCOc1ccc(CO)cc1 [(9)] | 30 | 60 |  |
| CCCCCCOc1ccc(CO)cc1 [(10)] | 120 | 60 |  |
| CCCCCCCCOc1ccc(CO)cc1 [(11)] |  | 15 | 15 (≈ 63.5 µM) |
| C[Si](C)(C)CCCOc1cccc(CO)c1 [(12)] | 60 | 60 |  |
| C[Si](C)(COc1cccc(CO)c1)c1ccccc1 [(13)] | 60 | >120 |  |
| CCCCCCCCOc1cccc(CO)c1 [(14)] | 15 | 30 |  |
| CCCCCC(C)Oc1cccc(CO)c1 (stereo not drawn) [(15)] | 120 | 120 |  |
| COc1ccc(OCCC[Si](C)(C)C)c(CO)c1 [(16)] | 15 | >120 |  |
| COc1ccc(OC[Si](C)(C)C)c(CO)c1 [(17)] | 60 | 60 |  |
| COc1ccc(OCCOc2ccccc2)c(CO)c1 [(18)] | 120 | 60 |  |
| CCCCOc1ccc(OC)cc1CO [(19)] | 120 | 60 |  |

| SMILES | MIC Staphylococcus aureus [1] [ppm] | MIC Escherichia coli [2] | MIC ([1]; Staphylococcus aureus, ATCC6538) [µg/mL] |
| --- | --- | --- | --- |
| CCCCCCOc1ccc(OC)cc1CO [(20)] | 60 | 60 |  |
| CCCCCCCCOc1ccc(OC)cc1CO [(21)] | 30 | 30 |  |
| CCC(CC)Oc1ccc(OC)cc1CO [(22)] | 60 | 60 |  |
| CCCCCC(C)Oc1ccc(OC)cc1CO (stereo not drawn) [(23)] | 60 | 60 |  |
| COc1ccc(OC2CCCCC2)c(CO)c1 [(24)] | 60 | 60 |  |
| COc1ccc(OCc2ccccc2)c(CO)c1 [(25)] | 120 | 120 |  |
| CCCCCCCCOc1cccc(OC)c1CO [(26)] | 15 | 15 |  |
| CCCCCCCCOc1c(CO)cccc1OC [(27)] | 30 | 60 |  |
| CCCCCCCCOc1ccc(CO)cc1OC [(28)] | 30 | 30 |  |
| C=CC[Si](C)(C)COc1ccc(CO)cc1OC[Si](C)(C)CC=C [(29)] | 120 | >120 |  |
| CCCCCCCCOc1ccc(CO)cc1OCCCCCCCC [(30)] | 60 | 60 |  |
| CCCCCCCCCCCCOc1ccc(CO)cc1OCCCCCCCCCCCC [(31)] | 120 | >120 |  |
| CCCCCCCCCCCCOc1ccc(CO)c(OCCCCCCCCCCCC)c1 [(32)] | 60 | >120 |  |
| OCc1ccc(OC2CCCCC2)cc1OC1CCCCC1 [(33)] | 15 | >120 |  |
| CCCCCCCCOc1ccc(OCCCCCCCC)c(CO)c1 [(34)] | 120 | 60 |  |
| CCCCCCCCCCCCOc1ccc(OCCCCCCCCCCCC)c(CO)c1 [(35)] | 60 | 120 |  |
